Data from publication PMC10673369, “Preliminary SAR of Novel Pleuromutilin–Polyamine Conjugates” (Microorganisms, 2023).

Tests used:
[1] = tested on: E. coli ATCC 25922; assay: Antibiotic enhancement of erythromycin; assay type: cell-based; settings: for Erythro/E.c.: fold change, ratio between intrinsic MIC of test compound and combination MIC: erythromycin at 2.7 µM; for Erythro/E.c.: concentration required to restore erythromycin activity: erythromycin at 2.7 µM (2 µg/mL)
Method: [Worded in the source for another target; used here, by the source, with some conditions changed.] Antibiotic restoring enhancer concentrations were determined using reported protocols (see Supplementary File).
Briefly, restoring enhancer concentrations were determined with an inoculum of 5x10^5 CFU in 200 µL of MHB containing two-fold serial dilutions of each derivative in the presence of doxycycline at 4.5 […]
The lowest concentration of the polyamine
These measurements were independently repeated in triplicate.
Outer membrane permeabilization was measured using nitrocefin as a chromogenic substrate of periplasmic β-lactamase. Ten milliliters of MH broth were inoculated with 0.1 mL of an overnight culture of PAO1 bacteria and grown at 37°C until the OD600 reached 0.5. The remaining steps were performed at room temperature. Cells were recovered by centrifugation (4000 rpm for 20 min) and washed once in 20 mM potassium phosphate buffer (pH 7.2) containing MgCl2 (1 mM). After a second centrifugation, the pellet was resuspended and adjusted to OD600 of 0.5. Then, 50 µL of the desired compound was added to 100 µL of the cell suspension to obtain a final concentration varying from 3.9 µM to 250 µM. Fifty microliters of nitrocefin were then added to obtain a final concentration of 50 µg/mL. Nitrocefin hydrolysis was monitored spectrophotometrically by measuring the increase in absorbance at 490 nm. Assays were performed in 96-well plates using a M200 Pro Tecan […]
HEK293 cells were counted manually in a Neubauer hemocytometer and plated at a density of 5,000 cells/well into each well of the 384-well plates containing the 25x (2 µL) concentrated compounds [26,27]. The medium used was Dulbecco's modified Eagle’s medium (DMEM), supplemented with 10% fetal bovine serum (FBS). Cells were incubated together with the compounds for 20 h at 37 °C, 5% CO2.
To measure cytotoxicity, 5 µL (equals 100 µM final) of resazurin was added to each well after incubation and incubated for further 3 h at 37 °C with 5% CO2. After the final incubation, fluorescence intensity […]
reader. CC50 values (concentration at 50% cytotoxicity) were calculated by normalizing the fluorescence readout, with 74 µg/mL tamoxifen as negative control (0%) and normal cell growth as positive control (100%). The concentration-dependent percentage cytotoxicity was fitted to a dose–response function (using Pipeline Pilot) and CC50 values were determined.
(§1) Human whole blood was washed three times with three volumes of 0.9% NaCl and then resuspended in the same solution to a concentration of 0.5 x 10^8 cells/mL, as determined by the manual cell count in a Neubauer hemocytometer. The washed cells were then added to the 384-well compound-containing plates for a final volume of 50 µL. After a 10 min shake on a plate shaker, the plates were then incubated for 1 h at 37 °C. After incubation, the plates were centrifuged at 1,000g for 10 min to pellet cells and debris; 25 µL of the supernatant was then transferred to a polystyrene 384-well assay plate. Hemolysis was determined by measuring the supernatant absorbance at […] (OD405). The absorbance was measured using a Tecan M1000 Pro monochromator plate reader. HC10 and HC50 (concentration at 10% and 50% hemolysis, respectively) were calculated by curve fitting the inhibition values vs. log (concentration) using a sigmoidal dose–response function with variable fitting values for the top, bottom, and slope.
2.8. Real-time growth curves
Solutions of the compound at concentrations of 2, 4, and 16 µg/mL were tested each in triplicate against S. aureus ATCC 25923 [26]. Typically, in a 96-well plate were placed 10 µL of 40, 80, and 320 µg/mL stock solutions of compound, as well as 190 µL of a 5 x 10^5 CFU/mL of the selected bacterial suspension in brain heart infusion (BHI) broth. Positive controls containing only 200 µL of a 5 x 10^5 CFU/mL of bacterial suspension in BHI and negative controls containing only 200 µL of BHI broth were added. The plate was incubated at 37°C in a TECAN Spark Reader (Roche Diagnostic) and real-time […]

[2] = tested on: human red blood cells; assay: Hemolytic assay; assay type: cell-based; settings: mean (n = 2)
Method: Hemolysis assays were conducted using reported protocols (see Supplementary File). […]
as §1, with “slope. […]” for “slope.”

| Erythro/E.c.: fold change, ratio between intrinsic MIC of test compound and combination MIC [1] | Compound | Erythro/E.c.: concentration required to restore erythromycin activity [1] [µM] | Hemolysis (HC10), concentration of compound at 10% hemolytic activity [2] [µM] |
| --- | --- | --- | --- |
| 0.5 | C=C[C@]1(C)C[C@@H](OC(=O)CSCCN(CC)CC)[C@]2(C)[C@H](C)CC[C@]3(CCC(=O)[C@H]32)[C@@H](C)[C@@H]1O [Compound 2, Tiamulin, reference compound] | > 405 | >64.8 |
| 2 | C=C[C@]1(C)C[C@@H](OC(=O)CNCCCNCCCCNCCCNCC(=O)O[C@@H]2C[C@@](C)(C=C)[C@@H](O)[C@H](C)[C@]34CCC(=O)[C@H]3[C@@]2(C)[C@H](C)CC4)[C@]2(C)[C@H](C)CC[C@]3(CCC(=O)[C@H]32)[C@@H](C)[C@@H]1O.O=C(O)C(F)(F)F.O=C(O)C(F)(F)F.O=C(O)C(F)(F)F.O=C(O)C(F)(F)F [Compound 9a, N^1,N^1′-(Butane-1,4-diyl)bis(N^3-(2-(((3aR,4R,5R,7S,8S,9R,9aS,12R)-8-hydroxy-4,7,9,12-tetramethyl-3-oxo-7-vinyldecahydro-4,9a-propanocyclopenta [8]annulen-5-yl)oxy)-2-oxoethyl)propane-1,3-diaminium) 2,2,2-trifluoroacetate] |  | >23.2 |
| 1 | C=C[C@]1(C)C[C@@H](OC(=O)CNCCCNCCCCCCNCCCNCC(=O)O[C@@H]2C[C@@](C)(C=C)[C@@H](O)[C@H](C)[C@]34CCC(=O)[C@H]3[C@@]2(C)[C@H](C)CC4)[C@]2(C)[C@H](C)CC[C@]3(CCC(=O)[C@H]32)[C@@H](C)[C@@H]1O.O=C(O)C(F)(F)F.O=C(O)C(F)(F)F.O=C(O)C(F)(F)F.O=C(O)C(F)(F)F [Compound 9b, N^1,N^1′-(Hexane-1,6-diyl)bis(N^3-(2-(((3aR,4R,5R,7S,8S,9R,9aS,12R)-8-hydroxy-4,7,9,12-tetramethyl-3-oxo-7-vinyldecahydro-4,9a-propanocyclopenta [8]annulen-5-yl)oxy)-2-oxoethyl)propane-1,3-diaminium) 2,2,2-trifluoroacetate] | 8.88 | >22.7 |
| 2 | C=C[C@]1(C)C[C@@H](OC(=O)CNCCCNCCCCCCCNCCCNCC(=O)O[C@@H]2C[C@@](C)(C=C)[C@@H](O)[C@H](C)[C@]34CCC(=O)[C@H]3[C@@]2(C)[C@H](C)CC4)[C@]2(C)[C@H](C)CC[C@]3(CCC(=O)[C@H]32)[C@@H](C)[C@@H]1O.O=C(O)C(F)(F)F.O=C(O)C(F)(F)F.O=C(O)C(F)(F)F.O=C(O)C(F)(F)F [Compound 9c, N^1,N^1′-(Heptane-1,7-diyl)bis(N^3-(2-(((3aR,4R,5R,7S,8S,9R,9aS,12R)-8-hydroxy-4,7,9,12-tetramethyl-3-oxo-7-vinyldecahydro-4,9a-propanocyclopenta [8]annulen-5-yl)oxy)-2-oxoethyl)propane-1,3-diaminium) 2,2,2-trifluoroacetate] |  | >22.5 |
| 2 | C=C[C@]1(C)C[C@@H](OC(=O)CNCCCNCCCCCCCCNCCCNCC(=O)O[C@@H]2C[C@@](C)(C=C)[C@@H](O)[C@H](C)[C@]34CCC(=O)[C@H]3[C@@]2(C)[C@H](C)CC4)[C@]2(C)[C@H](C)CC[C@]3(CCC(=O)[C@H]32)[C@@H](C)[C@@H]1O.O=C(O)C(F)(F)F.O=C(O)C(F)(F)F.O=C(O)C(F)(F)F.O=C(O)C(F)(F)F [Compound 9d, N^1,N^1′-(Octane-1,8-diyl)bis(N^3-(2-(((3aR,4R,5R,7S,8S,9R,9aS,12R)-8-hydroxy-4,7,9,12-tetramethyl-3-oxo-7-vinyldecahydro-4,9a-propanocyclopenta [8]annulen-5-yl)oxy)-2-oxoethyl)propane-1,3-diaminium) 2,2,2-trifluoroacetate] |  | >22.3 |
| 0.5 | C=C[C@]1(C)C[C@@H](OC(=O)CNCCCNCCCCCCCCCCNCCCNCC(=O)O[C@@H]2C[C@@](C)(C=C)[C@@H](O)[C@H](C)[C@]34CCC(=O)[C@H]3[C@@]2(C)[C@H](C)CC4)[C@]2(C)[C@H](C)CC[C@]3(CCC(=O)[C@H]32)[C@@H](C)[C@@H]1O.O=C(O)C(F)(F)F.O=C(O)C(F)(F)F.O=C(O)C(F)(F)F.O=C(O)C(F)(F)F [Compound 9e, N^1,N^1′-(Decane-1,10-diyl)bis(N^3-(2-(((3aR,4R,5R,7S,8S,9R,9aS,12R)-8-hydroxy-4,7,9,12-tetramethyl-3-oxo-7-vinyldecahydro-4,9a-propanocyclopenta [8]annulen-5-yl)oxy)-2-oxoethyl)propane-1,3-diaminium) 2,2,2-trifluoroacetate] | 8.54 | >21.9 |
| 0.5 | C=C[C@]1(C)C[C@@H](OC(=O)CNCCCNCCCCCCCCCCCCNCCCNCC(=O)O[C@@H]2C[C@@](C)(C=C)[C@@H](O)[C@H](C)[C@]34CCC(=O)[C@H]3[C@@]2(C)[C@H](C)CC4)[C@]2(C)[C@H](C)CC[C@]3(CCC(=O)[C@H]32)[C@@H](C)[C@@H]1O.O=C(O)C(F)(F)F.O=C(O)C(F)(F)F.O=C(O)C(F)(F)F.O=C(O)C(F)(F)F [Compound 9f, N^1,N^1′-(Dodecane-1,12-diyl)bis(N^3-(2-(((3aR,4R,5R,7S,8S,9R,9aS,12R)-8-hydroxy-4,7,9,12-tetramethyl-3-oxo-7-vinyldecahydro-4,9a-propanocyclopenta [8]annulen-5-yl)oxy)-2-oxoethyl)propane-1,3-diaminium) 2,2,2-trifluoroacetate] | 8.38 | 13.2 |
